According to patent US20120322125A1, “CONTROL OF CONTAMINANT MICROORGANISMS IN FERMENTATION PROCESSES WITH SYNERGISTIC FORMULATIONS CONTAINING PEROXIDE COMPOUND AND QUATERNARY AMMONIUM COMPOUND” (E. I. DU PONT DE NEMOURS AND COMPANY, priority 2010, published 2012):

Tests used:
[1] = tested on: lactic acid bacteria (LAB) species (Lactobacillus brevis, Lactobacillus plantarum, Lactobacillus paracasei); experiment: Viable count of lactic acid bacteria cocktail in treated molasses medium; type: cell-based; settings: for Viable Population: LAB in molasses medium, 32° C.
Procedure: (§1) A fermentation broth was prepared by diluting 1 part molasses with 3 parts water as is commonly practiced in molasses-based fermentation processes. A cocktail of three lactic acid bacteria (LAB) species (Lactobacillus brevis, Lactobacillus plantarum, Lactobacillus paracasei) was concurrently prepared by growing an overnight culture of each bacteria in deMann-Rogosa-Sharpe (MRS) broth (available from Difco Laboratories, Inc., Sparks, Md.) at 32° C. in a shaking incubator, then combining the broth to make up a mixed culture. A separate overnight culture of Saccharomyces cerevisiae (inoculant yeast) was prepared by growing an overnight culture in Yeast Peptone Dextrose (YPD) broth (available from Difco Laboratories Inc., Sparks, Md.). A potion of the molasses medium was inoculated with the cocktail of LAB to result in approximately 1×10^6 colony forming units (CFU) per ml of medium. A separate portion was inoculated with the yeast to result in approximately 6×10^5 CFU/ml. Portions of the inoculated molasses medium were treated with hydrogen peroxide (HP), quaternary ammonium compound (didecyl dimethyl ammonium chloride) or combinations of the two as outlined below:
(§2) Treated samples were incubated at 32° C. in a shaking incubator, following which serial dilutions were made in phosphate buffered saline (PBS) before plating the dilutions on MRS agar and Potato Dextrose Agar (PDA) plates for viable count determination. The plates were incubated at 32° C. for 48 hrs.

[2] = tested on: Saccharomyces cerevisiae (inoculant yeast); experiment: Viable count of inoculant yeast in treated molasses medium; type: cell-based; settings: for Viable Population: S. cerevisiae in molasses medium, 32° C.
Procedure: as §1, §2

OO [HP, hydrogen peroxide]
Viable Population ([1]; 75 ppm HP): 4.5 × 10^5 CFU/ml
reduction of the viable LAB population ([1]; 100 ppm HP by itself): about 1 log CFU/ml
Viable Population ([1]; 100 ppm HP): 8.1 × 10^4 CFU/ml

CCCCCCCCCC[N+](C)(C)CCCCCCCCCC.[Cl-] [QAC, didecyl dimethyl ammonium chloride]
reduction of the LAB population ([1]; 100 ppm QAC by itself): did not reduce
Viable Population ([1]; 100 ppm QAC): 1.19 × 10^6 CFU/ml
Viable Population ([1]; 150 ppm QAC): 1.16 × 10^6 CFU/ml
Viable Population ([2]; 100 ppm QAC): 5.0 × 10^5 CFU/ml
Viable Population ([2]; 150 ppm QAC): 3.5 × 10^5 CFU/ml
effects on the viability of the inoculant yeast ([2]; similar concentrations of QAC and HP, alone or combined): did not have any significant effects
